Columns and labels:
[1] = test system: ECHCG; test: Herbicidal pre-emergence action (Table A2); format: in vivo, Echinochloa crus-galli; conditions: visual grading after ca. 3 weeks
In short: (§1)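 Pots: sandy loam. Sowing: one mono- and one dicot weed species together per pot. Seeds covered with soil.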

[2] = test system: LOLRI; test: Herbicidal pre-emergence action (Table A3); format: in vivo, Lolium rigidum; conditions: visual grading after ca. 3 weeks
In short: as §1

[3] = test system: MATIN; test: Herbicidal pre-emergence action (Table A4); format: in vivo, Matricaria inodora; conditions: application rate 1280 g/ha; visual grading after ca. 3 weeks
In short: as §1

[4] = test system: SETVI; test: Herbicidal pre-emergence action (Table A5); format: in vivo, Setaria viridis; conditions: application rate 320 g/ha; visual grading after ca. 3 weeks
In short: as §1

[5] = test system: POAAN; test: Herbicidal pre-emergence action (Table A7); format: in vivo, Poa annua; conditions: visual grading after ca. 3 weeks
In short: as §1

[6] = test system: ECHCG; test: Herbicidal post-emergence action (Table B3); format: in vivo, Echinochloa crus-galli; conditions: application rate 1280 g/ha; rated visually after about 3 weeks
In short: (§2)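 Sow weeds in sandy loam pots, one species each; grow in greenhouse 2–3 weeks to one-leaf stage; treat; hold ~3 weeks under optimum conditions; rate damage visually vs untreated (0–100%).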

[7] = test system: POAAN; test: Herbicidal post-emergence action (Table B7); format: in vivo, Poa annua; conditions: application rate 1280 g/ha
In short: as §2

[8] = test system: ABUTH; test: Herbicidal pre-emergence action, section C (Table C1); format: in vivo, Abutilon theophrasti; conditions: application rate 320 g/ha; visual grading after ca. 3 weeks
[9] = test system: ECHCG; test: Herbicidal pre-emergence action, section C (Table C6); format: in vivo, Echinochloa crus-galli; conditions: visual grading after ca. 3 weeks
[10] = test system: SETVI; test: Herbicidal pre-emergence action, section C (Table C10); format: in vivo, Setaria viridis; conditions: visual grading after ca. 3 weeks
[11] = test system: ZEAMX; test: Pre-emergence effects on crop plants (Table D1); format: in vivo, Zea mays; conditions: crop plant, visual grading after ca. 3 weeks
[12] = test system: TRZAS; test: Pre-emergence effects on crop plants (Table D2); format: in vivo, Triticum aestivum; conditions: crop plant; application rate 80 g/ha; visual grading after ca. 3 weeks
[13] = test system: GLXMA; test: Pre-emergence effects on crop plants (Table D4); format: in vivo, Glycine max; conditions: crop plant, visual grading after ca. 3 weeks
[14] = test system: ECHCG; test: Herbicidal post-emergence action, section E (Table E5); format: in vivo, Echinochloa crus-galli; conditions: application rate 320 g/ha; assessed visually after ca. 3 weeks
From the text: (§3) 2 to 3 weeks after sowing, the test plants were sprayed in the single-leaf stage.

[15] = test system: ZEAMX; test: Post-emergence effects on crop plants (Table F1); format: in vivo, Zea mays; conditions: crop plant ZEAMX
From the text: as §3

[16] = test system: TRZAS; test: Post-emergence effects on crop plants (Table F2); format: in vivo, Triticum aestivum; conditions: application rate 320 g/ha, crop plant TRZAS
From the text: as §3

[17] = test system: ORYZA; test: Post-emergence effects on crop plants (Table F3); format: in vivo, Oryza sativa; conditions: application rate 320 g/ha, crop plant ORYZA
From the text: as §3

[18] = test system: ORYZA; test: Pre-emergence effects on crop plants (Table D3); conditions: crop plant; application rate 80 g/ha; visual grading after ca. 3 weeks
[19] = test system: ABUTH; test: Herbicidal pre-emergence action (Table A1); format: in vivo, Abutilon theophrasti; conditions: application rate 1280 g/ha; visual grading after ca. 3 weeks vs untreated controls (100% = plants have died off, 0% = as control plants)
In short: as §1

[20] = test system: STEME; test: Herbicidal pre-emergence action (Table A6); format: in vivo, Stellaria media; conditions: visual grading after ca. 3 weeks
In short: as §1

[21] = test system: AMARE; test: Herbicidal pre-emergence action (Table A8); format: in vivo, Amaranthus retroflexus; conditions: application rate 1280 g/ha; visual grading after ca. 3 weeks vs untreated controls (100% = plants have died off, 0% = as control plants)
From the text: Seeds of mono- and dicotyledonous weed plants were sown in plastic pots (double sowings with one species of mono- and one species of dicotyledonous weed plants per pot), in sandy loam, and covered with soil.

[22] = test system: ALOMY; test: Herbicidal pre-emergence action (Table A9); format: in vivo, Alopecurus myosuroides; conditions: application rate 1280 g/ha; visual grading after ca. 3 weeks
In short: as §1

[23] = test system: KCHSC; test: Herbicidal pre-emergence action (Table A10); format: in vivo, Kochia scoparia; conditions: visual grading after ca. 3 weeks
In short: as §1

[24] = test system: VERPE; test: Herbicidal pre-emergence action (Table A11); format: in vivo, Veronica persica; conditions: application rate 1280 g/ha; visual grading after ca. 3 weeks
In short: as §1

[25] = test system: DIGSA; test: Herbicidal pre-emergence action (Table A12); format: in vivo, Digitaria sanguinalis; conditions: visual grading after ca. 3 weeks
In short: as §1

[26] = test system: ABUTH; test: Herbicidal post-emergence action (Table B1); format: in vivo, Abutilon theophrasti; conditions: application rate 1280 g/ha; treated at one-leaf stage; rated visually after about 3 weeks vs untreated controls (100% = plants have died, 0% = like control plants)
Experimental: (§4) Seeds of mono- and dicotyledonous weed plants were placed in plastic pots in sandy loam soil (doubly sown with in each case one species of mono- or dicotyledonous weed plants per pot), covered with soil and cultivated in a greenhouse under controlled growth conditions. 2 to 3 weeks after sowing, the test plants were treated at the one-leaf stage. […] After the test plants had been kept in the greenhouse under optimum growth conditions for about 3 weeks, the activity of the preparations was rated visually in comparison to untreated controls. For example, 100% activity = the plants have died, 0% activity = like control plants.

[27] = test system: SETVI; test: Herbicidal post-emergence action (Table B8); format: in vivo, Setaria viridis; conditions: application rate 1280 g/ha
Experimental: as §4

[28] = test system: ALOMY; test: Herbicidal pre-emergence action, section C (Table C2); format: in vivo, Alopecurus myosuroides; conditions: application rate 320 g/ha; visual grading after ca. 3 weeks
[29] = test system: DIGSA; test: Herbicidal pre-emergence action, section C (Table C5); format: in vivo, Digitaria sanguinalis; conditions: application rate 320 g/ha; visual grading after ca. 3 weeks
[30] = test system: LOLRI; test: Herbicidal pre-emergence action, section C (Table C7); format: in vivo, Lolium rigidum; conditions: application rate 320 g/ha; visual grading after ca. 3 weeks
From the text: Seeds of mono- and dicotyledonous weed plants and crop plants were sown, in plastic or organic planting pots, in sandy loam and covered with soil. The compounds according to the invention, formulated in the form of wettable powders (WP) or as emulsifiable concentrates (EC), were applied to the surface of the covering soil as aqueous suspension or emulsion, with the addition of 0.5% of an additive, at an application rate of 600 1 of water/ha (converted). Following treatment, the pots were placed in a greenhouse and kept under optimum growth conditions for the test plants.

[31] = test system: MATIN; test: Herbicidal pre-emergence action, section C (Table C8); format: in vivo, Matricaria inodora; conditions: application rate 320 g/ha; visual grading after ca. 3 weeks
[32] = test system: POLCO; test: Herbicidal pre-emergence action, section C (Table C9); format: in vivo, Polygonum convolvulus; conditions: application rate 320 g/ha; visual grading after ca. 3 weeks
[33] = test system: VERPE; test: Herbicidal pre-emergence action, section C (Table C11); format: in vivo, Veronica persica; conditions: application rate 320 g/ha; visual grading after ca. 3 weeks
[34] = test system: VIOTR; test: Herbicidal pre-emergence action, section C (Table C12); format: in vivo, Viola tricolor; conditions: visual grading after ca. 3 weeks
[35] = test system: VERPE; test: Herbicidal post-emergence action, section E (Table E9); format: in vivo, Veronica persica; conditions: application rate 320 g/ha; assessed visually after ca. 3 weeks
From the text: as §3

[36] = test system: BRSNW; test: Post-emergence effects on crop plants (Table F5); format: in vivo, Brassica napus; conditions: application rate 80 g/ha, crop plant BRSNW
From the text: as §3

O=C1N(Cc2ccccc2Br)CCCC12CCCN(Cc1c(F)cccc1F)C2=O (racemic) [I-048]
0%: pre-emergence activity against ZEAMX ([11]; application rate 80 g/ha) | pre-emergence activity against TRZAS [12] | pre-emergence activity against GLXMA ([13]; application rate 320 g/ha) | post-emergence activity against ORYZA [17] | pre-emergence activity against ORYZA [18]
90%: pre-emergence activity against MATIN [3] | pre-emergence activity against POAAN ([5]; application rate 1280 g/ha) | post-emergence activity against ECHCG [6] | post-emergence activity against POAAN [7] | pre-emergence activity against ABUTH [8]
100%: pre-emergence activity against ECHCG ([1]; application rate 320 g/ha) | pre-emergence activity against LOLRI ([2]; application rate 320 g/ha) | pre-emergence activity against SETVI [4] | pre-emergence activity against ECHCG ([9]; application rate 320 g/ha) | pre-emergence activity against SETVI ([10]; application rate 80 g/ha)
20%: post-emergence activity against ZEAMX ([15]; application rate 320 g/ha) | post-emergence activity against TRZAS [16]
80%: post-emergence activity against ECHCG [14]

O=C1N(Cc2cccc(F)c2F)CCCC12CCN(Cc1c(F)cccc1F)C2=O (racemic) [I-032]
80%: pre-emergence activity against MATIN [31] | pre-emergence activity against POLCO [32] | pre-emergence activity against VERPE [33] | post-emergence activity against ECHCG [14]
100%: pre-emergence activity against ECHCG ([1]; application rate 1280 g/ha) | pre-emergence activity against LOLRI ([2]; application rate 320 g/ha) | pre-emergence activity against SETVI [4] | pre-emergence activity against POAAN ([5]; application rate 320 g/ha) | pre-emergence activity against DIGSA ([25]; application rate 1280 g/ha) | pre-emergence activity against DIGSA [29] | pre-emergence activity against ECHCG ([9]; application rate 80 g/ha) | pre-emergence activity against LOLRI [30] | pre-emergence activity against SETVI ([10]; application rate 320 g/ha)
0%: pre-emergence activity against ZEAMX ([11]; application rate 320 g/ha) | pre-emergence activity against TRZAS [12] | pre-emergence activity against GLXMA ([13]; application rate 80 g/ha) | post-emergence activity against TRZAS [16] | post-emergence activity against ORYZA [17] | post-emergence activity against BRSNW [36] | pre-emergence activity against ORYZA [18]
90%: pre-emergence activity against ABUTH [19] | pre-emergence activity against MATIN [3] | pre-emergence activity against STEME ([20]; application rate 320 g/ha) | pre-emergence activity against AMARE [21] | pre-emergence activity against ALOMY [22] | pre-emergence activity against KCHSC ([23]; application rate 320 g/ha) | pre-emergence activity against VERPE [24] | post-emergence activity against ABUTH [26] | post-emergence activity against ECHCG [6] | post-emergence activity against POAAN [7] | post-emergence activity against SETVI [27] | pre-emergence activity against ALOMY [28] | pre-emergence activity against VIOTR ([34]; application rate 80 g/ha) | post-emergence activity against VERPE [35]
20%: post-emergence activity against ZEAMX ([15]; application rate 80 g/ha)

O=C1N(Cc2ccccc2)CCCC12CCN(Cc1cccc(F)c1F)C2=O (racemic) [I-039]
90%: pre-emergence activity against ABUTH [19] | pre-emergence activity against MATIN [3] | pre-emergence activity against STEME ([20]; application rate 1280 g/ha) | pre-emergence activity against AMARE [21] | pre-emergence activity against KCHSC ([23]; application rate 1280 g/ha) | pre-emergence activity against VERPE [24] | post-emergence activity against ABUTH [26] | post-emergence activity against ECHCG [6] | pre-emergence activity against ABUTH [8] | pre-emergence activity against LOLRI [30] | pre-emergence activity against VIOTR ([34]; application rate 320 g/ha)
80%: pre-emergence activity against VERPE [33]
20%: post-emergence activity against ZEAMX ([15]; application rate 320 g/ha) | pre-emergence activity against ORYZA [18]
0%: pre-emergence activity against ZEAMX ([11]; application rate 80 g/ha) | post-emergence activity against TRZAS [16] | post-emergence activity against ORYZA [17]
100%: pre-emergence activity against ECHCG ([1]; application rate 320 g/ha) | pre-emergence activity against LOLRI ([2]; application rate 1280 g/ha) | pre-emergence activity against SETVI [4] | pre-emergence activity against POAAN ([5]; application rate 320 g/ha) | pre-emergence activity against DIGSA ([25]; application rate 320 g/ha) | pre-emergence activity against ALOMY [28] | pre-emergence activity against DIGSA [29] | pre-emergence activity against ECHCG ([9]; application rate 80 g/ha) | pre-emergence activity against SETVI ([10]; application rate 320 g/ha)
